Laboratory results as given in article PMC3539403, “Molecular Characterization of Lipopolysaccharide Binding to Human α-1-Acid Glycoprotein” (Journal of Lipids, 2012).
Entries after “also recorded” stand apart in the source; their conditions may differ. Read-outs that look alike come from different tables or passages of the source.

What was measured:
K. pneumoniae = test system: K. pneumoniae; set-up: method as in PMID 10809735; conditions: intraperitoneal, 10 mg, 2 h prior to lethal challenge of K. pneumoniae; cited from earlier work
[1] = LPS binding affinity of plasma binding proteins; conditions: AGP, this study's SPR data
HEK293 cells = assay: Cytotoxicity of LPS to HEK293 cells (Alamar Blue cell viability), with or without AGP; type: cell-based; conditions: LPS 100 μg/mL, AGP 0-1 mg/mL
Method: HEK293 cell line was purchased from American Type Culture Collection (ATCC). The cells were cultured in DMEM (Invitrogen, Australia) containing 10% fetal bovine serum at 37°C, 5% CO2. Serum-free media were used in cytotoxicity assays. Cytotoxicity of LPS to HEK293 cells was determined using Alamar Blue cell viability reagent (Invitrogen, Australia). In brief, HEK293 cells were seeded as 2 × 10^4 cells per well in a clear 96-well plate and incubated for 24 hr at 37°C, 5% CO2. Then the media were replaced with serum-free media, which contained AGP and LPS (100 μg/mL). After a 24 hr incubation, 10 μL of Alamar Blue reagent were added per well and incubated at 37°C for 1 hr. Then the fluorescence intensity was read using Polar star Omega with excitation/emission wavelengths of 560/590.

human AGP [2] = assay: Fluorometric assay of FITC-E. coli O111:B4 LPS binding to AGP; conditions: chlorpromazine 20 μM final concentration; FITC-LPS 5 μM, AGP 25 μM
Method: […] Fluorescence was measured using a Cary Eclipse Fluorescence spectrophotometer (Varian, Mulgrave, VIC, Australia) set at an excitation wavelength specific for the FITC fluorophore (Exλ 494 nm). Slit widths were set to 5 nm for both the excitation and emission monochromators. The emission spectrum was collected in the 500→650 nm range.

human AGP [3] = assay: SPR assay of AGP binding to lipid A/Kdo2-lipid A in DMPC hybrid SUV bilayer (L1 chip); conditions: 10% (mol/mol) lipid in DMPC bilayer; Kdo2-lipid A response at AGP concentrations higher than 7 μM
Method: In the case of lipid A and Kdo2-lipid A binding, a L1 sensor chip was used (GE Health Care, Melbourne Australia). Small unilamellar vesicles (SUVs) were prepared in PBS by sonication and extrusion. Lipids (DMPC, lipid A, and Kdo2-lipid A) were dissolved in ethanol-free chloroform in 25 mL round-bottom flasks. 10% (mol/mol) of lipid A or Kdo2-lipid A was added into DMPC solution to make 10% lipid A/Kdo2-lipid A-DMPC mixtures, which were then deposited as a thin film by removal of the solvent (chloroform) under reduced pressure on a rotary evaporator and dried under high vacuum for at least 2 hours. PBS was then added into each flask to give a 1 mM suspension, which was sonicated 5 min for 5 times. […] The SUVs were then injected into the flow cells of the L1 sensor chip for 2000 sec at a low flow rate of 2 μL/min to form a bilayer membrane model on the chip surface. Then, a series of AGP solutions was injected across the flow cells at a flow rate of 30 μL/min, having an injection phase of 180 s and a dissociation phase of 300 s. A regeneration step was added before and after every cycle using 40 mM octyl-glucoside, which cleans the chip surface for a new cycle. Pure DMPC bilayer was applied as a reference and all data used in analysis were reference-subtracted.

[4] = set-up: method as in PMID 12887306, PMID 11739189; conditions: cited from earlier work
[5] = test system: meningococcal endotoxemia mouse model; set-up: method as in PMID 9179623; conditions: intraperitoneal, 8 mg, 2 h prior to LPS challenge; cited from earlier work

AGP: human α-1-acid glycoprotein from plasma, F1:S:A variants 40:30:30
survival of mice (K. pneumoniae): increased the survival of mice | LPS binding affinity [1]: high micromolar | effect of AGP on the cytotoxic effect of LPS (HEK293 cells): ameliorated in a concentration-dependent manner

CN(C)CCCN1c2ccccc2Sc2ccc(Cl)cc21 [chlorpromazine]
change in fluorescence emission of the FITC-LPS:AGP complex (human AGP [2]): decrease in fluorescence emission

diphosphoryl lipid A
specific AGP binding to lipid in hybrid SUVs (human AGP [3]): no specific AGP binding detected

CCCCCCCCCCCCCC(=O)O[C@H](CCCCCCCCCCC)CC(=O)O[C@@H]1[C@@H](NC(=O)C[C@@H](CCCCCCCCCCC)OC(=O)CCCCCCCCCCC)[C@H](OC[C@H]2O[C@H](OP(=O)(O)O)[C@H](NC(=O)C[C@H](O)CCCCCCCCCCC)[C@@H](OC(=O)C[C@H](O)CCCCCCCCCCC)[C@@H]2O)O[C@H](CO[C@]2(C(=O)O)C[C@@H](O[C@]3(C(=O)O)C[C@@H](O)[C@@H](O)[C@@H]([C@H](O)CO)O3)[C@@H](O)[C@@H]([C@H](O)CO)O2)[C@H]1OP(=O)(O)O [Kdo2-lipid A]
specific AGP binding to lipid in hybrid SUVs (human AGP [3]): dose-dependent response; also recorded: very weak

B1: LBP: lipopolysaccharide-binding protein, LPS-specific plasma binding protein (protein, UniProt P18428 26-481, looked up)
Lipopolysaccharide-binding …: ANPGLVARITDKGLQYAAQEGLLALQSELLRITLPDFTGDLRIPHVGRGRYEFHSLNIHSCELLHSALRPVPGQGLSLSISDSSIRVQGRWKVRKSFFKLQGSFDVSVKGISISVNLLLGSESSGRPTVTASSCSSDIADVEVDMSGDLGWLLNLFHNQIESKFQKVLESRICEMIQKSVSSDLQPYLQTLPVTTEIDSFADIDYSLVEAPRATAQMLEVMFKGEIFHRNHRSPVTLLAAVMSLPEEHNKMVYFAISDYVFNTASLVYHEEGYLNFSITDDMIPPDSNIRLTTKSFRPFVPRLARLYPNMNLELQGSVPSAPLLNFSPGNLSVDPYMEIDAFVLLPSSSKEPVFRLSVATNVSATLTFNTSKITGFLKPGKVKVELKESKVGLFNAELLEALLNYYILNTFYPKFNDKLAEGFPLPLLKRVQLYDLGLQIHKDFLFLGANVQYMRV
LPS binding affinity [4]: nanomolar

B2: bovine AGP: bovine α-1-acid glycoprotein (protein, UniProt Q3SZR3 19-202, looked up)
Alpha-1-acid glycoprotein: QSPECANLMTVAPITNATMDLLSGKWFYIGSAFRNPEYNKSARAIQAAFFYLEPRHAEDKLITREYQTIEDKCVYNCSFIKIYRQNGTLSKVESDREHFVDLLLSKHFRTFMLAASWNGTKNVGVSFYADKPEVTQEQKKEFLDVIKCIGIQESEIIYTDEKKDACGPLEKQHEEERKKETEAS
protection against sepsis [5]: protect against sepsis

B3: BPI: bactericidal/permeability-increasing protein (protein, UniProt P17213 32-487, looked up)
Bactericidal …: VNPGVVVRISQKGLDYASQQGTAALQKELKRIKIPDYSDSFKIKHLGKGHYSFYSMDIREFQLPSSQISMVPNVGLKFSISNANIKISGKWKAQKRFLKMSGNFDLSIEGMSISADLKLGSNPTSGKPTITCSSCSSHINSVHVHISKSKVGWLIQLFHKKIESALRNKMNSQVCEKVTNSVSSELQPYFQTLPVMTKIDSVAGINYGLVAPPATTAETLDVQMKGEFYSENHHNPPPFAPPVMEFPAAHDRMVYLGLSDYFFNTAGLVYQEAGVLKMTLRDDMIPKESKFRLTTKFFGTFLPEVAKKFPNMKIQIHVSASTPPHLSVQPTGLTFYPAVDVQAFAVLPNSSLASLFLIGMHTTGSMEVSAESNRLVGELKLDRLLLELKHSNIGPFPVELLQDIMNYIVPILVLPRVNEKLQKGFPLPTPARVQLYNVVLQPHQNFLLFGADVVYK
LPS binding affinity [4]: nanomolar
